Experimental data reported in patent publication US7875607B2, “7,8-bicycloakyl-chroman derivatives” (Ampere Life Sciences, Inc., priority 2004, dated 2011).

What was measured:
[1] = system: MPTP treated C57/BL6 mice; test: MPTP animal model, pole test; format: in vivo, mouse; settings: for effect on the functional deficit produced by MPTP: 30 mg/kg/day, each of days 1-3
Method: MPTP/MPP^+-induced neurodegeneration of dopaminergic neurons is a well characterized model which is therefore widely used to understand the pathogenesis of Parkinson's disease. The compounds were tested against MPTP/MPP^+ induced neuronal death in vitro and in vivo as shown in the following examples. In vitro evaluation of protection against mitochondrial dysfunction is carried out using substantia nigra-derived dopaminergic progenitor cell line (as described in Son J H, et al J W. (1999) J Neurosci, 19:10-20), exposed to 1-methyl-4-phenylpyridinium (MPP^+). In vivo evaluation was carried out using mice that had been treated with 1-methyl-4-phenyl-1,2,3,6-tetrahydropyridine (MPTP), a neurotoxin. […] In a number of species, including humans, […] and rodents, MPTP produces an irreversible and severe parkinsonian syndrome which includes virtually all the clinical features of the disease.
Male C57/BL6 mice (Harlan, Ind.), weight 25-30 g, were used in all studies. MPTP-HCl (Sigma) was administered i.p. according to one of the following protocols. The maximum volume which was given per injection is 200 μL. In all studies, animals were euthanized with carbon dioxide and, brains removed for subsequent determination of dopamine depletion where appropriate.
The pole test evaluates motor co-ordination.
A rough surfaced metal pole (diameter 8 mm, height 50 cm) protruding from a cage filled with animal bedding was used for this test. Animals were placed head upwards at the top of the pole. They were required to turn and descend face downwards and the time taken for this was recorded (latency to reach bedding). Timing was started when the individual animal gripped the top of the pole and was stopped when all four limbs contacted the bedding.
All test compounds were administered ip. The maximum volume which was given per injection was 200 μL. Compounds were dosed up to twice daily, two days prior and 7 days post MPTP treatment.
A baseline reading was taken for each animal one day prior to MPTP treatment. All subsequent readings were normalized to the individual animal's baseline. Values were expressed as a percent baseline.
Data is percent baseline and expressed as mean±std dev: […]
Compound and vehicle given for 9 days in total, 2 days prior to MPTP and 7 days after MPTP treatment. L-DOPA given 1 hour prior to the pole test each day.

[2] = system: IL-1beta production in mouse microglial cell line; test: Interleukin-1β microglial cell assay; format: cell-based; settings: LPS 10 μg/ml and IFN gamma 10 ng/ml, 24 hours, read-out: EC50, inhibition of IL-1beta production
Method: This assay measures the release of IL-1β from a mouse microglial cell line following an inflammatory challenge with LPS and interferon-gamma. The ability of test articles to inhibit microglial cell activation and IL-1β release is determined by co-incubation of the test article with the inflammatory challenge.
Mouse microglial cells were seeded in poly-D-lysine coated 96-well plates at a density of 10,000 cells/well and allowed to attach for 24 hours. Cells were stimulated by addition of LPS (10 μg/ml) and IFN gamma (10 ng/ml) in the presence or absence of test article. The cells were then incubated for 24 hours at 37° C., after which time the media was removed and used for cytokine determination as described below.
Viability of mouse microglial cells after exposure to the test article was determined using a fluorescent viability dye, Cell Tracker Green. Cell Tracker Green was used at a working concentration of 5 μM in 1×HBSS. Cells were washed once with HBSS (200 μl/well) and 100 μl Cell Tracker Green was added to each well. Cells were then incubated at 37° C. for 30 minutes, after which time the Cell Tracker was removed and the cells were washed once with HBSS (200 μl/well). 100 μl fresh HBSS was added to each well and the plate was read on a Fluoroskan plate reader using an excitation wavelength of 485 nm and an emission wavelength of 538 nm.
Solutions: • Wash Buffer: PBS 1 L+500 μl Tween 20 (final 0.05%) pH 7.2-7.4. • Blocking Buffer: 500 ml PBS+5 g BSA V (1%)+25 g Sucrose (5%)+0.25 g Sodium Azide (0.05%). • Reagent Diluent: 500 ml PBS+5 g BSA V (1%) pH 7.2-7.4 and filter sterilize through 0.2 μm. • Stop Solution: 2N sulfuric acid.
Duo Set Preparations: • 1. The IL-1β capture antibody was reconstituted in 1 ml of PBS to give a final concentration of 720 μg/ml, and the working concentration was 4 μg/ml. For coating one 96-well plate (at 100 μl/well) 56 μl of the 720 μg/ml stock was diluted into 10 ml of PBS. • 2. The IL-1β standards were reconstituted in 0.5 ml of Reagent Diluent (70 ng/ml). For a high standard of 1 ng/ml (2 wells at 100 μl each+enough for series dilution) 7.1 μl of the 70 ng/ml standard were diluted into 0.5 ml of Reagent Diluent • 3. The IL-1β detection antibody was reconstituted in 1 ml of Reagent Diluent to give a final concentration of 18 μg/ml and the working concentration is 100 ng/ml. For one 96-well plate (at 100 μl/well) 56 μl of the 18 μg/ml stock was diluted into 10 ml of Reagent Diluent.
• The Costar EIA Hi-binding plate was coated with capture antibody at 4 μg/ml. Each well was coated with 100 μl, and the plate was sealed and incubated overnight at room temperature. • Each well was aspirated and washed 3× with Wash Buffer. Each well was filled to the top, dispensed, and any remaining buffer was removed by inverting the plate and gently blotting against clean paper towels. • Non-specific binding sites were blocked by adding 300 μl of Blocking Buffer to each well, and after sealing incubating for at least 1 hour at room temperature. • After washing the plate was now ready for the samples. Assay Procedure: • 100 μl of either standard or sample were added in each well of the capture-coated and pre-blocked plate. The plate was sealed and incubated for 2 hours at room temperature, followed with washing. • 100 μl of the detection antibody (10 ng/ml) were added to each well. […]

[3] = target: T1, human recombinant 5-lipoxygenase (Homo sapiens, UniProt P09917); test: 5-Lipoxygenase enzyme assay; format: biochemical; settings: 70 μM arachidonic acid, pH 7.4
T1 construct: purchased Cayman 60402
T1 sequence (P09917 1-674): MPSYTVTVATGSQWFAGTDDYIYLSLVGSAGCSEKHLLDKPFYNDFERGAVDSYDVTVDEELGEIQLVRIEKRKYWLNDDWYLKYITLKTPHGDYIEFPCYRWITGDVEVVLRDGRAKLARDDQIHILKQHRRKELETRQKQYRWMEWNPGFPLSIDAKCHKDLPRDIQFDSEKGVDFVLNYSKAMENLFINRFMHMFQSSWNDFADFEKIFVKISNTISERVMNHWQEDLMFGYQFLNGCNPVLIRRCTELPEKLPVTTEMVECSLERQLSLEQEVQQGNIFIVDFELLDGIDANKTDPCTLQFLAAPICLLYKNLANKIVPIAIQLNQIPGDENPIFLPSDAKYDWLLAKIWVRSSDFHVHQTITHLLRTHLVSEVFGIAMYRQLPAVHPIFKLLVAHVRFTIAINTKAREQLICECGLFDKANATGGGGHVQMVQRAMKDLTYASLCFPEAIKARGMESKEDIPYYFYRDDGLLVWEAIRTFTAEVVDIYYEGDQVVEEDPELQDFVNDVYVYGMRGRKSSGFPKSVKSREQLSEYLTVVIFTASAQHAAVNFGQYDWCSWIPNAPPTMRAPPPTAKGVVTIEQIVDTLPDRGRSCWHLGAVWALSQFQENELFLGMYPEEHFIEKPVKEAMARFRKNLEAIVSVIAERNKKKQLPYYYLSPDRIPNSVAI
Summary of the method: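 Human recombinant 5-LO (0.5 U) with compound in 50 mM Tris-HCl pH 7.4 reacted with 70 μM arachidonic acid for 10 min at room temperature. Hydroperoxide formation was read via FOX xylenol orange complex at 620 nm after 1 h; compounds at 5 concentrations from 10 μM, in triplicate.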

[4] = system: dopaminergic neuronal cell line; test: High glutamate-induced oxidative stress assay (HGOS); format: cell-based; settings: Mus musculus; 30 mM glutamate, 16 hrs; read-out: EC50, protection against HGOS cell injury and cell death
Summary of the method: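 Mouse dopaminergic cells (passage ≤ p11) were grown 72 h at 33 °C, washed in HBSS, then exposed 16 h at 37 °C to compounds in DMEM-No Glu with 1 mM glucose and 30 mM glutamate. Surviving cells were stained 30 min with 5 μM Cell Tracker Green and fluorescence read at 485/538 nm.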

[5] = L-DOPA given 1 hour prior to the pole test, mean±std dev

Row | Compound | EC50 [2] | effect on the functional deficit produced by MPTP [1] | other results
1 | N[C@@H](Cc1ccc(O)c(O)c1)C(=O)O [L-DOPA] | – | – | pole test, percent baseline, Day 1 [1, 5]: 110 ± 13.2 percent baseline; pole test, percent baseline, Day 2 [1, 5]: 97.9 ± 20.0 percent baseline; pole test, percent baseline, Day 3 [1, 5]: 100.1 ± 14.8 percent baseline
2 | CC1(CCC(=O)O)CCc2cc(O)c3c(c2O1)C1CCC3C1 (stereo not shown) [3-(6-Hydroxy-2-methyl-3,4,7,8,9,10-hexahydro-7,10-methano-2H-benzo[h]chromen-2-yl)-propionic Acid] | – | significantly reduced the functional deficit produced by MPTP | –
3 | CC1(CCC(=O)O)CCc2cc(O)c3c(c2O1)C1CCCC3CC1 (stereo not shown) [3-(6-Hydroxy-2-methyl-3,4,7,8,9,10-hexahydro-7,10-propano-2H-benzo[h]chromen-2-yl)-propionic Acid] | ≤ 20 µM | – | –
4 | COC(=O)CCC1(C)CCc2cc(O)c3c(c2O1)C1CCC3C1 (stereo not shown) [3-(6-Hydroxy-2-methyl-3,4,7,8,9,10-hexahydro-7,10-methano-2H-benzo[h]chromen-2-yl)-propionic Acid Methyl Ester] | – | significantly reduced the functional deficit produced by MPTP | IC50 [3]: ≤ 5 µM

Now from value to compound, other results behind:

Row | EC50 [2] | Compound | effect on the functional deficit produced by MPTP [1] | other results
5 | ≤ 20 µM | CC(C)=CCc1c(O)c2c(c3c1CCC(C)(CCC(=O)O)O3)C1CCC2C1 (stereo not shown) [3-[6-hydroxy-2-methyl-5-(3-methyl-but-2-enyl)-3,4,7,8,9,10-hexahydro-7,10-methano-2H-benzo[h]chromen-2-yl]-propionic acid] | – | –
6 | ≤ 20 µM | CC(=O)Oc1c(CC=C(C)C)c2c(c3c1C1CCC3C1)OC(C)(C)CC2 (stereo not shown) [Acetic acid 2,2-dimethyl-5-(3-methyl-but-2-enyl)-3,4,7,8,9,10-hexahydro-7,10-methano-2H-benzo[h]chromen-6-yl ester] | – | EC50 [4]: ≤ 1 µM
